ChEMBL document CHEMBL1201862, “PubChem BioAssay data set” (2004)
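Cultured in 96-well plates, cells were exposed to test compound for 48 hours across five concentrations. GI50 marks 50% less growth.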 Calls of active or inactive are those of the source. No stated cut-off is given here; in the data, active = GI50 up to about 1.1 µM and inactive = higher. Where a SMILES comes first, the peptide text is derived from it. Peptide text beside a SMILES is read from it. [ ]: non-standard residue; d: D form. The star is where a group is joined. ξ: configuration not given here. ξD = NC(CC(=O)O)C(=O)O; Ac3c = NC1(C(=O)O)CC1; Boc = CC(C)(C)OC(=O)*; OBn = c1ccc(CO*)cc1

Legend:
Experiment in all cases: inhibition of tumour cell growth, NCI panel, 48 h
OVCAR-8 = system: OVCAR-8
CAKI-1 = system: CAKI-1
RPMI-8226 = system: RPMI-8226
LOX IMVI = system: LOX IMVI
K562 = system: K562
OVCAR-3 = system: OVCAR-3
MCF7 = system: MCF7
NCI-H226 = system: NCI-H226
MOLT-4 = system: MOLT-4
HCT-15 = system: HCT-15
MDA-N = system: MDA-N
BT-549 = system: BT-549
OVCAR-5 = system: OVCAR-5
DU-145 = system: DU-145
NCI-H460 = system: NCI-H460
A549 = system: A549
OVCAR-4 = system: OVCAR-4
TK-10 = system: TK-10
RXF 393 = system: RXF 393
U-251 = system: U-251

Row | Structure (SMILES) | GI50 (OVCAR-8) | GI50 (CAKI-1) | GI50 (RPMI-8226) | GI50 (LOX IMVI) | GI50 (K562) | GI50 (OVCAR-3) | GI50 (MCF7) | GI50 (NCI-H226) | GI50 (MOLT-4) | GI50 (HCT-15) [µM] | GI50 (MDA-N) | GI50 (BT-549) | GI50 (OVCAR-5) | GI50 (DU-145) | GI50 (NCI-H460) | GI50 (A549) | GI50 (OVCAR-4) | GI50 (TK-10) | GI50 (RXF 393) | GI50 (U-251)
1 | CCOC(=O)c1c(N2CCCC2)[nH]c(=O)c(C(c2ccc(Cl)c([N+](=O)[O-])c2)c2c(O)c(C(=O)OCC)c(N3CCCC3)[nH]c2=O)c1O | 15.5 µM (inactive) | 24.4 µM (inactive) | 42.9 µM (inactive) | 19.3 µM (inactive) | 63.2 µM (inactive) | 29.9 µM (inactive) | 28.6 µM (inactive) | 63.5 µM (inactive) | 46.6 µM (inactive) | > 100 | 24.5 µM (inactive) | 16.3 µM (inactive) | 30.2 µM (inactive) | 60.8 µM (inactive) | > 100 µM (inactive) | > 100 µM (inactive) | > 100 µM (inactive) | 19.2 µM (inactive) | 31.7 µM (inactive) | 14.9 µM (inactive)
2 | COC(=O)C1(NC(=O)C(CC(=O)OCc2ccccc2)NC(=O)OC(C)(C)C)CC1 (stereo not given) (Boc-[ξD](OBn)-[Ac3c]-OMe) | > 100 µM (inactive) | > 100 µM (inactive) | > 100 µM (inactive) | > 100 µM (inactive) | > 100 µM (inactive) | > 100 µM (inactive) | > 100 µM (inactive) | > 100 µM (inactive) | > 100 µM (inactive) | > 100 | > 100 µM (inactive) | > 100 µM (inactive) | > 100 µM (inactive) | > 100 µM (inactive) | > 100 µM (inactive) | > 100 µM (inactive) | > 100 µM (inactive) | > 100 µM (inactive) | > 100 µM (inactive) | > 100 µM (inactive)
3 | COc1cccc2c1C(=O)c1c(O)c3c(c(O)c1C2=O)C[C@@](O)(/C(C)=N\O)C[C@@H]3OC1CC(N)C(O)C(C)O1 (stereo not given in full) | 1.15 µM (inactive) | 1.93 µM (inactive) | 0.592 µM (active) | 0.388 µM (active) | 0.553 µM (active) | 1.45 µM (inactive) | 0.289 µM (active) | 1.81 µM (inactive) | 0.0661 µM (active) | 28.7 | 1.88 µM (inactive) | 1.72 µM (inactive) | 2.7 µM (inactive) | 1.72 µM (inactive) | 0.268 µM (active) | 0.968 µM (active) | 4.46 µM (inactive) | 3.24 µM (inactive) | 1.41 µM (inactive) | 0.766 µM (active)
4 | c1ccc2c(c1)cc1c3[nH]c4ccccc4c3ccn21 | > 10 µM (inactive) | > 10 µM (inactive) | 4.59 µM (inactive) | > 10 µM (inactive) | > 10 µM (inactive) | > 10 µM (inactive) | 1.19 µM (inactive) | > 10 µM (inactive) | > 10 µM (inactive) | > 10 | > 10 µM (inactive) | > 10 µM (inactive) | > 10 µM (inactive) | > 10 µM (inactive) | > 10 µM (inactive) | > 10 µM (inactive) | > 10 µM (inactive) | > 10 µM (inactive) | > 10 µM (inactive) | > 10 µM (inactive)
5 | NCCCc1c(-c2ccccc2)[nH]c(N)nc1=O | > 100 µM (inactive) | > 100 µM (inactive) | > 100 µM (inactive) | > 100 µM (inactive) | > 100 µM (inactive) | > 100 µM (inactive) | > 100 µM (inactive) | > 100 µM (inactive) | > 100 µM (inactive) | > 100 | > 100 µM (inactive) | > 100 µM (inactive) | > 100 µM (inactive) | > 100 µM (inactive) | > 100 µM (inactive) | > 100 µM (inactive) | > 100 µM (inactive) | > 100 µM (inactive) | > 100 µM (inactive) | > 100 µM (inactive)
6 | CC[C@H]1C=CCC[C@@]2(C[C@@H]3CC[C@H]4[C@H](C(=O)OCCCCCCCCCCCCCCCC(=O)N(CCCN)C[C@@H](O)CCN)[C@]5(CCC[C@@H](C)O5)NC(=[N+]34)N2)O1 | 0.693 µM (active) | 0.532 µM (active) | 0.177 µM (active) | 0.36 µM (active) | 0.256 µM (active) | 1.41 µM (inactive) | 0.421 µM (active) | 1.04 µM (active) | 0.27 µM (active) | 0.723 | 0.407 µM (active) | 1.71 µM (inactive) | 0.429 µM (active) | 1.1 µM (active) | 0.52 µM (active) | 0.48 µM (active) | 0.863 µM (active) | 1.46 µM (inactive) | 1.6 µM (inactive) | 0.378 µM (active)
7 | Nc1ncc(N)c(NCC2(CO)CC(CCc3ccccc3)C2)n1 (stereo not given) | 10.5 µM (inactive) | 7.73 µM (inactive) | 0.482 µM (active) | 3.46 µM (inactive) | 2.12 µM (inactive) | 2.26 µM (inactive) | 3.37 µM (inactive) | 5.83 µM (inactive) | 0.393 µM (active) | 13.9 | 8.28 µM (inactive) | 9.75 µM (inactive) | 14.7 µM (inactive) | 11.2 µM (inactive) | 13.1 µM (inactive) | 9.73 µM (inactive) | 4.02 µM (inactive) | 12.5 µM (inactive) | 12.5 µM (inactive) | 6.58 µM (inactive)
8 | CC(=O)CC1CCC(=O)/C=C/C(=O)OC(CC(C)=O)CCC(=O)/C=C/C(=O)O1 (stereo not given) | 19.3 µM (inactive) | 6.53 µM (inactive) | 2.9 µM (inactive) | 18.6 µM (inactive) | 3.25 µM (inactive) | 6.79 µM (inactive) | 9.25 µM (inactive) | 33 µM (inactive) | 2.19 µM (inactive) | 2.1 | 9.53 µM (inactive) | 3.2 µM (inactive) | 17.6 µM (inactive) | 19.6 µM (inactive) | 18.5 µM (inactive) | 21.7 µM (inactive) | 7.83 µM (inactive) | 7.35 µM (inactive) | 3.22 µM (inactive) | 21.4 µM (inactive)
9 | CCOP(=O)(/C=C\n1cnc2c(=O)n(C(C)=O)c(N)nc21)OCC | > 100 µM (inactive) | > 100 µM (inactive) | > 100 µM (inactive) | > 100 µM (inactive) | > 100 µM (inactive) | > 100 µM (inactive) | > 100 µM (inactive) | > 100 µM (inactive) | > 100 µM (inactive) | > 100 | > 100 µM (inactive) | > 100 µM (inactive) | > 100 µM (inactive) | > 100 µM (inactive) | > 100 µM (inactive) | > 100 µM (inactive) | > 100 µM (inactive) | > 100 µM (inactive) | > 100 µM (inactive) | > 100 µM (inactive)
10 | Nc1c(S(=O)(=O)O)cc(Nc2cccc(S(N)(=O)=O)c2)c2c1C(=O)c1ccccc1C2=O | > 100 µM (inactive) | > 100 µM (inactive) | > 100 µM (inactive) | 43.8 µM (inactive) | > 100 µM (inactive) | 83.9 µM (inactive) | > 100 µM (inactive) | > 100 µM (inactive) | > 100 µM (inactive) | 84.5 | 20.3 µM (inactive) | > 100 µM (inactive) | > 100 µM (inactive) | > 100 µM (inactive) | 87.5 µM (inactive) | > 100 µM (inactive) | > 100 µM (inactive) | > 100 µM (inactive) | 74.3 µM (inactive) | 46.5 µM (inactive)
11 | COc1cccc2c1C(=O)c1c(O)c3c(c(O)c1C2=O)C[C@@](O)(C(=O)CO)CC3OC1CC(O)C(O)C(C)O1 (stereo not given in full) | 0.256 µM (active) | 0.185 µM (active) | 0.199 µM (active) | 0.108 µM (active) | 0.239 µM (active) | 0.583 µM (active) | < 0.01 µM (active) | 0.0218 µM (active) | 0.0202 µM (active) | 0.397 | 0.562 µM (active) | 0.279 µM (active) | 0.424 µM (active) | 0.0294 µM (active) | < 0.01 µM (active) | 0.104 µM (active) | 1.01 µM (active) | 0.792 µM (active) | 0.238 µM (active) | 0.0679 µM (active)
12 | CC[C@@]1(O)C(=O)OCc2c1cc1n(c2=O)Cc2c-1nc1ccccc1c2/C=N\NC(=O)C[n+]1ccccc1 | 0.398 µM (active) | 0.151 µM (active) | 1.67 µM (inactive) | 0.218 µM (active) | 1.02 µM (active) | 7.78 µM (inactive) | 0.0735 µM (active) | 0.991 µM (active) | 0.0552 µM (active) | 2.9 | 4.02 µM (inactive) | 7.57 µM (inactive) | 6.18 µM (inactive) | 0.0944 µM (active) | 0.117 µM (active) | 0.513 µM (active) | 8.57 µM (inactive) | 20.5 µM (inactive) | 0.76 µM (active) | 0.261 µM (active)
13 | CC(=O)NC(CS)C(=O)NC(CO)C(=O)NC(CO)C(=O)NC(Cc1c[nH]c2ccccc12)C(=O)N1CCCC1C(=O)NC(CO)C(=O)NC(Cc1c[nH]c2ccccc12)C(=O)NC(Cc1c[nH]cn1)C(=O)NC(CO)C(=O)NC(Cc1c[nH]c2ccccc12)C(=O)NCC(=O)NCC(=O)NC(C)C(=O)NC(CCC(N)=O)C(=O)NC(CCCCN)C(=O)NC(C)C(=O)NC(CCCNC(=N)N)C(=O)NC(CCCCN)C(N)=O (stereo not given) (Ac-CSSWPSWHSWGGAQKARK-NH2; configuration not given here) | 42.6 µM (inactive) | 11.9 µM (inactive) | 39 µM (inactive) | 46.3 µM (inactive) | 10.3 µM (inactive) | > 50 µM (inactive) | 18.9 µM (inactive) | > 50 µM (inactive) | 29.8 µM (inactive) | 41.3 | 19.1 µM (inactive) | 14.4 µM (inactive) | > 50 µM (inactive) | 16.8 µM (inactive) | 12.4 µM (inactive) | > 50 µM (inactive) | > 50 µM (inactive) | > 50 µM (inactive) | 10 µM (inactive) | 13 µM (inactive)
